Experimental data taken from patent US10266497B2 (ABIDE THERAPEUTICS, INC., priority 2017, dated 2019).

Legend:
FAAH [1] = biological target: T1, FAAH (Homo sapiens, UniProt O00519); test: In vitro competitive activity-based protein profiling, FAAH, human; details: for inhibition at 1 µM: read-out: FAAH % inh. 1 μM (human)
T1 sequence (O00519 1-579): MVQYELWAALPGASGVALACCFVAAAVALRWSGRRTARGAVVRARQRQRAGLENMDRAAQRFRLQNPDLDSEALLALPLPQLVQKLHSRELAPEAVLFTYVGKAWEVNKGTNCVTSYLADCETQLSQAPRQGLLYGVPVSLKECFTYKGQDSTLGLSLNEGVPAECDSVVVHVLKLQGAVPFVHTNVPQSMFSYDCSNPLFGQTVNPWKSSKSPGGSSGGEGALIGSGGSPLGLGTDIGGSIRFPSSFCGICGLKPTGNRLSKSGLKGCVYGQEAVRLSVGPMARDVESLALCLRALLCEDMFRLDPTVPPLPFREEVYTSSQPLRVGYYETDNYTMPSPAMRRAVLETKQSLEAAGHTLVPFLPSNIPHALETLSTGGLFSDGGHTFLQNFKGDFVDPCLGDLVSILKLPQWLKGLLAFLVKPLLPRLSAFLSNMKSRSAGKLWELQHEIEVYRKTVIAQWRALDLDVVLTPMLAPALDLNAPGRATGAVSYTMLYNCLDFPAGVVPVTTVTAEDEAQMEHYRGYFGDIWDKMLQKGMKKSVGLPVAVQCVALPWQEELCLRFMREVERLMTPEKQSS
Protocol: (§1) Biological Evaluation In Vitro Competitive Activity-Based Protein Profiling.
(§2) Proteomes (mouse brain membrane fraction for mouse assays; human prefrontal cortex membrane fractions for human assays) (50 mL, 1.0 mg/mL total protein concentration) were preincubated with varying concentrations of inhibitors at 37° C. After 30 min, FP-Rh (1.0 mL, 50 mM in DMSO) was added and the mixture was incubated for another 30 min at 37° C. Reactions were quenched with SDS loading buffer (15 μL—4λ) and run on SDS-PAGE.

MAGL [2] = biological target: T2, MAGL (Mus musculus, UniProt O35678); test: In vitro competitive activity-based protein profiling, MAGL, mouse; details: read-out: MAGL % inh. 1 μM (mouse)
T2 sequence (O35678 1-303): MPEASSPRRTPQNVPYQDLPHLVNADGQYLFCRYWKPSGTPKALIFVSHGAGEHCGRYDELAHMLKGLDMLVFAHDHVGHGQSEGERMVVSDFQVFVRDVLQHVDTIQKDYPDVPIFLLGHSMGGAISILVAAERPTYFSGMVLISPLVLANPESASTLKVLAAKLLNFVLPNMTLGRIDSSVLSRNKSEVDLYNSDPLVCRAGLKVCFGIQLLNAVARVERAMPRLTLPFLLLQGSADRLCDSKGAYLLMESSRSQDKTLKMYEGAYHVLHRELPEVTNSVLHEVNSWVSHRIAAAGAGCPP

MAGL [3] = biological target: T3, MAGL (Homo sapiens, UniProt Q99685); test: In vitro competitive activity-based protein profiling, MAGL, human; details: read-out: MAGL % inh. 1 μM (human)
T3 sequence (Q99685 1-303): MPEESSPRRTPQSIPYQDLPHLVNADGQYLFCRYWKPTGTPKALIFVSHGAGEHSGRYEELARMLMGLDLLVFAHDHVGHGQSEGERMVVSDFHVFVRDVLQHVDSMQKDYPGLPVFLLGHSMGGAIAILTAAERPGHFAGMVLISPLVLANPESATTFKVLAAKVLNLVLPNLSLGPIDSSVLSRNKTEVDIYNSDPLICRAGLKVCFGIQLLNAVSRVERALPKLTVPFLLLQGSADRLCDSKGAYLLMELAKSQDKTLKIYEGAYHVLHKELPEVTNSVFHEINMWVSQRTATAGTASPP

FAAH [4] = biological target: T4, FAAH (Mus musculus, UniProt O08914); test: In vitro competitive activity-based protein profiling, FAAH, mouse; details: read-out: FAAH % inh. 1 μM (mouse)
T4 sequence (O08914 1-579): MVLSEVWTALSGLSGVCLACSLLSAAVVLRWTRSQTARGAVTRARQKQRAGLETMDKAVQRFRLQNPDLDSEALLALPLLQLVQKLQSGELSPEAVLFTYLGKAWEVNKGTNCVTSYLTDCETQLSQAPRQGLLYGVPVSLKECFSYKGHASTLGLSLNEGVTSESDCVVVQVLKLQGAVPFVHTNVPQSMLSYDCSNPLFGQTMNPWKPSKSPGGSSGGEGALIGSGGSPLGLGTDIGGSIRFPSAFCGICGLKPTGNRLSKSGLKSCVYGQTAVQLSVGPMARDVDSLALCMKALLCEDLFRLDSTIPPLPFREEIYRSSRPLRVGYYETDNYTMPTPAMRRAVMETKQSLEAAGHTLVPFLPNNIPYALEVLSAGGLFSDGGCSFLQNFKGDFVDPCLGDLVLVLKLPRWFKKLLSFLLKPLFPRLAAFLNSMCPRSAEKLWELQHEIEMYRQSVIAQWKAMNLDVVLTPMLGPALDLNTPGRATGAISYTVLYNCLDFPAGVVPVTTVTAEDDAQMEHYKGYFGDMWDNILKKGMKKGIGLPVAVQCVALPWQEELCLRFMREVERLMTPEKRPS
Protocol: as §1, §2

SMILES | inhibition at 1 µM (FAAH [1]) | inhibition at 1 µM (MAGL [2]) | inhibition at 1 µM (MAGL [3]) | inhibition at 1 µM (FAAH [4]) | IC50 (FAAH [1])
NC(=O)c1ccn(C(=O)N2CCC3(CCCN3Cc3ccc(C(F)(F)F)cc3N3CCCC3)CC2)n1 [Example 174, 1-(1-(2-(pyrrolidin-1-yl)-4-(trifluoromethyl)benzyl)-1,8-diazaspiro[4.5]decane-8-carbonyl)-1H-pyrazole-3-carboxamide] | 0 to 25% | > 75% | > 75% | 25 to 50% | –
NC(=O)c1ccn(C(=O)N2CCN(Cc3cnccc3C(F)(F)F)CC2)n1 [Example 175, 1-(4-((4-(trifluoromethyl)pyridin-3-yl)methyl)piperazine-1-carbonyl)-1H-pyrazole-3-carboxamide] | > 75% | > 75% | > 75% | > 75% | 100 to 1000 nM
CN(Cc1cccc(C(F)(F)F)c1)C1CCN(C(=O)n2ccc(C(N)=O)n2)CC1 [Example 176, 1-(4-(methyl(3-(trifluoromethyl)benzyl)amino)piper-idine-1-carbonyl)-1H-pyrazole-3-carboxamide] | > 75% | > 75% | > 75% | > 75% | –
NC(=O)c1ccn(C(=O)N2CCN(Cc3ccc(Cl)cc3)CC2)n1 [Example 181, 1-(4-(4-chlorobenzyl)pipera-zine-1-carbonyl)-1H-pyrazole-3-carboxamide] | > 75% | > 75% | > 75% | > 75% | –
NC(=O)c1ccn(C(=O)N2CC3CN(Cc4ccc(C(F)(F)F)cc4)CC3C2)n1 (centres unmarked) [Example 182, 1-(5-(4-(trifluoromethyl)benzyl)octahydro-pyrrolo[3,4-c]pyrrole-2-carbonyl)-1H-pyrazole-3-carboxamide] | > 75% | > 75% | > 75% | > 75% | –
O=C(O)c1ccn(C(=O)N2CCC3(CCN(Cc4ccc(C(F)(F)F)cc4N4CCC(F)CC4)CC3)C2)n1 [Example 186, 1-(8-(2-(4-fluoropiperidin-1-yl)-4-(trifluoromethyl)benzyl)-2,8-diazaspiro[4.5]decane-2-carbonyl)-1H-pyrazole-3-carboxylic acid] | 0 to 25% | > 75% | 50 to 75% | 0 to 25% | –
O=C(O)c1ccn(C(=O)N2CCN(Cc3nc4ccccc4s3)CC2)n1 [Example 189, 1-(4-(benzo[d]thiazol-2-ylmethyl)piperazine-1-carbonyl)-1H-pyrazole-3-carboxylic acid] | 0 to 25% | > 75% | > 75% | 0 to 25% | –
O=C(O)c1ccn(C(=O)N2CCC(NCc3cccc(Oc4ccc(Cl)cc4)c3)CC2)n1 [Example 190, 1-(4-((3-(4-chlorophenoxy)benzyl)amino)piper-idine-1-carbonyl)-1H-pyrazole-3-carboxylic acid] | 25 to 50% | 0 to 25% | 25 to 50% | 50 to 75% | –
O=C(O)c1ccn(C(=O)N2CCC3(CCN(Cc4ccc(N5CCCC5)cc4C(F)(F)F)C3)CC2)n1 [Example 191, 1-(2-(4-(pyrrolidin-1-yl)-2-(trifluoromethyl)benzyl)-2,8-diazaspiro[4.5]decane-8-carbonyl)-1H-pyrazole-3-carboxylic acid] | 0 to 25% | > 75% | > 75% | 0 to 25% | –
O=C(O)c1ccn(C(=O)N2CCC3(CCN(Cc4cccc(C(F)(F)F)c4)C3)CC2)n1 [Example 192, 1-(2-(3-(trifluoromethyl)benzyl)-2,8-diazaspiro[4.5]decane-8-carbonyl)-1H-pyrazole-3-carboxylic acid] | 0 to 25% | 25 to 50% | > 75% | 0 to 25% | –
